Assay results published in ChEMBL document CHEMBL1201862, “PubChem BioAssay data set” (2004).
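Compound exposure: 48 hours, 5 concentrations, 96-well plates. GI50: concentration for 50% inhibition of growth.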 The source made the active and inactive calls. Rule as the data show it: active = GI50 up to about 1.1 µM and inactive = higher.

Tests used:
Test in all cases: NCI-60 cell line screen, 48 h
UACC-62 = system: UACC-62
K562 = system: K562
SF-295 = system: SF-295
SF-539 = system: SF-539
SK-MEL-2 = system: SK-MEL-2
SK-OV-3 = system: SK-OV-3
SW-620 = system: SW-620
RPMI-8226 = system: RPMI-8226
OVCAR-4 = system: OVCAR-4
NCI-H460 = system: NCI-H460
CAKI-1 = system: CAKI-1
TK-10 = system: TK-10
SR = system: SR
HL-60 = system: HL-60
HOP-92 = system: HOP-92

| Structure (SMILES) | GI50 (UACC-62) | GI50 (K562) | GI50 (SF-295) | GI50 (SF-539) | GI50 (SK-MEL-2) | GI50 (SK-OV-3) | GI50 (SW-620) | GI50 (RPMI-8226) | GI50 (OVCAR-4) | GI50 (NCI-H460) | GI50 (CAKI-1) | GI50 (TK-10) | GI50 (SR) | GI50 (HL-60) | GI50 (HOP-92) |
| --- | --- | --- | --- | --- | --- | --- | --- | --- | --- | --- | --- | --- | --- | --- | --- |
| C/C1=N\[N-]C(=O)c2ccccc2C(=O)N/N=C(\C)c2cccc1n2.O=[N+]([O-])[O-].[Zn+2] | > 100 µM (inactive) | > 100 µM (inactive) | > 100 µM (inactive) | > 100 µM (inactive) | > 100 µM (inactive) | > 100 µM (inactive) | > 100 µM (inactive) | > 100 µM (inactive) | > 100 µM (inactive) | > 100 µM (inactive) | > 100 µM (inactive) | > 100 µM (inactive) |  |  |  |
| N#CC(C(=O)/C(=N\NC(N)=O)C(C#N)c1ccccc1)c1ccccc1 (configuration not stated) | > 100 µM (inactive) | > 100 µM (inactive) | > 100 µM (inactive) | > 100 µM (inactive) | > 100 µM (inactive) | > 100 µM (inactive) | > 100 µM (inactive) | > 100 µM (inactive) | > 100 µM (inactive) | > 100 µM (inactive) | > 100 µM (inactive) | > 100 µM (inactive) | > 100 µM (inactive) | > 100 µM (inactive) | > 100 µM (inactive) |
| COC(=O)C1CC/C(=N/C2c3ccccc3-c3ccccc32)N1 (configuration not stated) | 63 µM (inactive) | > 100 µM (inactive) | > 100 µM (inactive) |  | > 100 µM (inactive) | > 100 µM (inactive) | > 100 µM (inactive) | 61.5 µM (inactive) | > 100 µM (inactive) | 32.7 µM (inactive) | > 100 µM (inactive) | > 100 µM (inactive) |  | > 100 µM (inactive) | 14.1 µM (inactive) |
| NC(=O)c1cccc([N+](=O)[O-])c1 | > 100 µM (inactive) | > 100 µM (inactive) | > 100 µM (inactive) | > 100 µM (inactive) | > 100 µM (inactive) | > 100 µM (inactive) | > 100 µM (inactive) | > 100 µM (inactive) |  | > 100 µM (inactive) | > 100 µM (inactive) | > 100 µM (inactive) |  | > 100 µM (inactive) |  |
| COc1ccc2c(c1)CCC(OS(=O)(=O)CC13CCC(CC1=O)C3(C)C)C2=O (configuration not stated) | 16.9 µM (inactive) | 24.3 µM (inactive) |  | 21.5 µM (inactive) | 23.9 µM (inactive) |  | 26.4 µM (inactive) | 19.7 µM (inactive) | 43.1 µM (inactive) | 18.1 µM (inactive) | 40.6 µM (inactive) | 39.6 µM (inactive) | 24.9 µM (inactive) | 18.5 µM (inactive) | 31.8 µM (inactive) |
| COc1cc2cc3c4c(cc(OC)c(OC)c4c2cc1OC)CCN3C(=O)OCCBr | 60.4 µM (inactive) |  | > 100 µM (inactive) | 22.4 µM (inactive) | > 100 µM (inactive) | > 100 µM (inactive) | 60.8 µM (inactive) |  |  | 33.2 µM (inactive) | 41.9 µM (inactive) | > 100 µM (inactive) | 18.7 µM (inactive) | 39.1 µM (inactive) | 39.1 µM (inactive) |
| CC1=C2C(=O)C(C)(C)C=C2C(=O)[C@](C)(O)C12CC2 [DEHYDROILLUDIN M] | 0.586 µM (active) | > 1 µM (active) | 0.585 µM (active) | > 1 µM (active) | 0.614 µM (active) | > 1 µM (active) | > 1 µM (active) | > 1 µM (active) | 0.766 µM (active) | 0.23 µM (active) | > 1 µM (active) | > 1 µM (active) | 0.61 µM (active) | 0.247 µM (active) | > 1 µM (active) |
| CCN(CC)CCNc1ccc2nnn3c4ccc(C)cc4c(=O)c1c23 | 14 µM (inactive) | 8.24 µM (inactive) | 5.02 µM (inactive) | 6.14 µM (inactive) | 13.7 µM (inactive) | 10.9 µM (inactive) | 4.63 µM (inactive) | 4.62 µM (inactive) | 12.1 µM (inactive) | 3.85 µM (inactive) | 13.2 µM (inactive) | 12.2 µM (inactive) | 3.37 µM (inactive) | 3.9 µM (inactive) | 6.55 µM (inactive) |
| O=S(=O)(c1ccccc1)C1CN2OC1(S(=O)(=O)c1ccccc1)CC21CCCCC1 (configuration not stated) | > 100 µM (inactive) | 85.9 µM (inactive) | > 100 µM (inactive) | > 100 µM (inactive) | > 100 µM (inactive) | > 100 µM (inactive) | > 100 µM (inactive) | 86.1 µM (inactive) | 37.1 µM (inactive) | 92.5 µM (inactive) | 73.3 µM (inactive) | > 100 µM (inactive) | 52.6 µM (inactive) | 44.9 µM (inactive) |  |
| COc1ccc2c(c1)C1C(CO2)C(c2ccccc2)=NN1c1ccccc1 (configuration not stated) |  | > 100 µM (inactive) | > 100 µM (inactive) | > 100 µM (inactive) | > 100 µM (inactive) | > 100 µM (inactive) | > 100 µM (inactive) | 48.1 µM (inactive) |  | > 100 µM (inactive) |  | > 100 µM (inactive) |  | 99.5 µM (inactive) | > 100 µM (inactive) |
| O=C1C2C(C(=O)N1c1ccccc1)C1(Br)c3ccccc3C2(Br)C2C(=O)N(c3ccccc3)C(=O)C21 (configuration not stated) | 23.7 µM (inactive) | 6.27 µM (inactive) | > 100 µM (inactive) | 27.2 µM (inactive) | 31.4 µM (inactive) | > 100 µM (inactive) | > 31.6 µM (inactive) | 10.6 µM (inactive) | 7.21 µM (inactive) | > 31.6 µM (inactive) | 64 µM (inactive) | > 31.6 µM (inactive) | > 10 µM (inactive) | > 31.6 µM (inactive) | > 10 µM (inactive) |
| Cc1[nH]c(=O)nc(N/N=C/c2ccc(O)cc2)c1C(=O)Nc1ccc(Cl)cc1 | > 100 µM (inactive) | > 100 µM (inactive) |  | > 100 µM (inactive) | > 100 µM (inactive) | > 100 µM (inactive) | > 100 µM (inactive) | > 100 µM (inactive) | > 100 µM (inactive) | > 100 µM (inactive) | > 100 µM (inactive) | > 100 µM (inactive) | > 100 µM (inactive) | > 100 µM (inactive) |  |
| COc1cc2c(cc1OC)C(CC(=O)NN=C(C)C)NCC2 (configuration not stated) | > 100 µM (inactive) | > 100 µM (inactive) | > 100 µM (inactive) | > 100 µM (inactive) | > 100 µM (inactive) | > 100 µM (inactive) | > 100 µM (inactive) | > 100 µM (inactive) | > 100 µM (inactive) | > 100 µM (inactive) | > 100 µM (inactive) | > 100 µM (inactive) | > 100 µM (inactive) | > 100 µM (inactive) | > 100 µM (inactive) |
| CNC(N)NC | > 100 µM (inactive) | > 100 µM (inactive) | > 100 µM (inactive) | > 100 µM (inactive) | > 100 µM (inactive) | > 100 µM (inactive) | > 100 µM (inactive) | > 100 µM (inactive) | > 100 µM (inactive) | > 100 µM (inactive) |  | > 100 µM (inactive) | > 100 µM (inactive) | > 100 µM (inactive) | > 100 µM (inactive) |
| O=C1OC(c2ccc(Cl)c3ccccc23)c2ccccc21 (configuration not stated) | 63.2 µM (inactive) | 55.7 µM (inactive) | 70.5 µM (inactive) | > 100 µM (inactive) | > 100 µM (inactive) | > 100 µM (inactive) |  | > 100 µM (inactive) | 63.5 µM (inactive) | > 100 µM (inactive) | 75.5 µM (inactive) |  | > 100 µM (inactive) | > 100 µM (inactive) | > 100 µM (inactive) |
| COc1cc2c(cc1OC)C(O)[C@H](Br)C(C)(C)O2 (some centres not stated) | > 100 µM (inactive) | > 100 µM (inactive) | > 100 µM (inactive) | > 100 µM (inactive) | > 100 µM (inactive) | > 100 µM (inactive) | > 100 µM (inactive) | > 100 µM (inactive) | > 100 µM (inactive) | > 100 µM (inactive) |  | > 100 µM (inactive) | > 100 µM (inactive) | > 100 µM (inactive) | > 100 µM (inactive) |
| CSc1ccc2c(cc1=O)C(NC(=O)c1ccccc1)CCc1cc(O)c(O)c(O)c1-2 (configuration not stated) | 5.05 µM (inactive) | 10.9 µM (inactive) | 4.22 µM (inactive) | 3.15 µM (inactive) | 5.5 µM (inactive) | 5.71 µM (inactive) | 15.7 µM (inactive) | 19.1 µM (inactive) | 16.3 µM (inactive) | 19 µM (inactive) | 27.6 µM (inactive) | 52.8 µM (inactive) |  | 7.43 µM (inactive) | 4.06 µM (inactive) |
| c1ccc(CN(Cn2cccn2)Cn2cccn2)nc1 | 43.8 µM (inactive) | > 100 µM (inactive) | > 100 µM (inactive) |  | > 100 µM (inactive) | > 100 µM (inactive) | > 100 µM (inactive) | 29.4 µM (inactive) | > 100 µM (inactive) | > 100 µM (inactive) | > 100 µM (inactive) | > 100 µM (inactive) | > 100 µM (inactive) | 47.8 µM (inactive) | > 100 µM (inactive) |
| CCCCCCCCCC1CC(=O)OC23CCCC(=O)C12O3 (configuration not stated) | 80 µM (inactive) | 55.1 µM (inactive) | > 100 µM (inactive) | > 100 µM (inactive) | > 100 µM (inactive) | > 100 µM (inactive) | > 100 µM (inactive) | > 100 µM (inactive) | > 100 µM (inactive) | > 100 µM (inactive) | > 100 µM (inactive) | > 100 µM (inactive) |  | 26.7 µM (inactive) | > 100 µM (inactive) |
| CC(C)N(C(C)C)P(OCCC#N)OC1CC(n2cnc3c(=O)[nH]cnc32)OC1COC(=O)NCCCCCCNC(=O)OC(C)(C)c1ccc(-c2ccccc2)cc1 (configuration not stated) | 18.4 µM (inactive) | 13.7 µM (inactive) | 52.1 µM (inactive) | 24 µM (inactive) | 30.4 µM (inactive) | 39.4 µM (inactive) | 34.1 µM (inactive) | 25.7 µM (inactive) | 19.7 µM (inactive) | 22.9 µM (inactive) | 39.4 µM (inactive) | 24.2 µM (inactive) |  | 14.7 µM (inactive) | 35.9 µM (inactive) |
